Experiments:
prostate cancer tumors = experiment: Preclinical: growth of well-established prostate cancer tumors in mice; settings: i.p. and p.o.
[1] = Phase 1 trial: Brief Pain Inventory; assay type: in vivo, human; settings: 10 point scale
Experimental: They also completed another pain inventory.
The pain inventory captured four categories of pain as follows: worst pain in last 24 hours, least pain in last 24 ours, average pain and pain right now. Pain was scored using a 10 point scale, on which 0 was no pain and 10 was severe pain. […] A change of at least one point was felt to be clinically meaningful.

[2] = Phase 1 trial: population PK model (NONMEM, 1-compartment, oral absorption) and simulations; settings: human, in vivo
GI epithelium = experiment: Preclinical: radiosensitization of normal GI epithelium; settings: preclinical studies
PSA = experiment: Phase 1 trial: PSA in the subset of patients with prostate cancer; assay type: in vivo, human
From the text: There was no evidence of a selenite dose response relationship, but patient numbers were too small and the patients too heterogeneous to draw a definitive conclusion about the presence or absence of a dose response relationship. Of note, patients were maintained on whatever ADT they were on before study entry, as discontinuation of ADT could have been even more of a confounding variable.

[3] = test system: tumor in irradiated field; experiment: Phase 1 trial: tumor response in irradiated field (imaging); assay type: in vivo, human; design: key: CR resolution of uptake; PR decrease in extent of involvement (# and size of lesion ≥ 50% observed); SD same extent of involvement (# and size of lesions)
From the text: All but one patient received palliative radiation therapy to symptomatic bone metastases. Quantitation of response in bone is difficult and imprecise. Furthermore, patients were imaged as per standard of care, using a variety of imaging modalities, including bone scan, which is not applicable to RECIST scoring. […] There was no apparent dose response relationship.

[4] = test system: breast and ovarian cancer cell lines; settings: 2 mg/kg, subcutaneous injection; cited from earlier work
[5] = SECAR study, cited from earlier work
[6] = 5.5 mg cohort (N=3), First follow-up
[7] = 11 mg cohort (N=3), First follow-up
[8] = 16.5 mg cohort (N=3), End of RT
[9] = 16.5 mg cohort (N=3), First follow-up
[10] = 33 mg cohort (N=5), First follow-up
[11] = 49.5 mg cohort (N=1), End of RT
[12] = 49.5 mg cohort (N=1), First follow-up

Structure (SMILES): O=[Se](O)O [sodium selenite, Sodium selenite pentahydrate]
- toxicity at the growth-inhibiting doses (prostate cancer tumors): no detectable toxicity
- Average Pain, average change from baseline, Mean ± SD ([1]; 5.5 mg cohort (N=3), End of RT): −2.5 ± 0.7
- Least Pain Last 24 Hrs, average change from baseline, Mean ± SD ([1]; 5.5 mg cohort (N=3), End of RT): −1.5 ± 2.1
- Pain Right Now, average change from baseline, Mean ± SD ([1]; 5.5 mg cohort (N=3), End of RT): −2 ± 0
- Worst Pain Last 24 Hrs, average change from baseline, Mean ± SD ([1]; 5.5 mg cohort (N=3), End of RT): −4 ± 1.4
- Average Pain, average change from baseline, Mean ± SD [1, 6]: −1.5 ± 0.7
- Least Pain Last 24 Hrs, average change from baseline, Mean ± SD [1, 6]: −1.5 ± 1.4
- Pain Right Now, average change from baseline, Mean ± SD [1, 6]: −2 ± 0
- Worst Pain Last 24 Hrs, average change from baseline, Mean ± SD [1, 6]: −2.5 ± 0.7
- Average Pain, average change from baseline, Mean ± SD ([1]; 11 mg cohort (N=3), End of RT): −2.3 ± 4.0
- Least Pain Last 24 Hrs, average change from baseline, Mean ± SD ([1]; 11 mg cohort (N=3), End of RT): −2.7 ± 3.8
- Pain Right Now, average change from baseline, Mean ± SD ([1]; 11 mg cohort (N=3), End of RT): 1.7 ± 2.9
- Worst Pain Last 24 Hrs, average change from baseline, Mean ± SD ([1]; 11 mg cohort (N=3), End of RT): −1.7 ± 1.5
- Average Pain, average change from baseline, Mean ± SD [1, 7]: −0.7 ± 4.6
- Least Pain Last 24 Hrs, average change from baseline, Mean ± SD [1, 7]: −1.3 ± 4.9
- Pain Right Now, average change from baseline, Mean ± SD [1, 7]: 1.7 ± 1.2
- Worst Pain Last 24 Hrs, average change from baseline, Mean ± SD [1, 7]: −0.7 ± 5.0
- Average Pain, average change from baseline, Mean ± SD [1, 8]: −1.5 ± 3.5
- Least Pain Last 24 Hrs, average change from baseline, Mean ± SD [1, 8]: −1 ± 2.8
- Pain Right Now, average change from baseline, Mean ± SD [1, 8]: −0.5 ± 2.1
- Worst Pain Last 24 Hrs, average change from baseline, Mean ± SD [1, 8]: −1 ± 1.4
- Average Pain, average change from baseline, Mean ± SD [1, 9]: −2 ± 2
- Least Pain Last 24 Hrs, average change from baseline, Mean ± SD [1, 9]: −2.3 ± 2.1
- Pain Right Now, average change from baseline, Mean ± SD [1, 9]: −2.7 ± 3.8
- Worst Pain Last 24 Hrs, average change from baseline, Mean ± SD [1, 9]: −0.7 ± 0.6
- Average Pain, average change from baseline, Mean ± SD ([1]; 33 mg cohort (N=5), End of RT): −1.2 ± 1.3
- Least Pain Last 24 Hrs, average change from baseline, Mean ± SD ([1]; 33 mg cohort (N=5), End of RT): −0.2 ± 0.5
- Pain Right Now, average change from baseline, Mean ± SD ([1]; 33 mg cohort (N=5), End of RT): −0.6 ± 1.1
- Worst Pain Last 24 Hrs, average change from baseline, Mean ± SD ([1]; 33 mg cohort (N=5), End of RT): −1 ± 2
- Average Pain, average change from baseline, Mean ± SD [1, 10]: −1 ± 1
- Least Pain Last 24 Hrs, average change from baseline, Mean ± SD [1, 10]: 0 ± 1
- Pain Right Now, average change from baseline, Mean ± SD [1, 10]: −0.8 ± 1.3
- Worst Pain Last 24 Hrs, average change from baseline, Mean ± SD [1, 10]: −2 ± 2
- Average Pain, average change from baseline, Mean ± SD [1, 11]: −4.5 ± 0
- Least Pain Last 24 Hrs, average change from baseline, Mean ± SD [1, 11]: −5 ± 0
- Pain Right Now, average change from baseline, Mean ± SD [1, 11]: −4 ± 0
- Worst Pain Last 24 Hrs, average change from baseline, Mean ± SD [1, 11]: −6 ± 0
- Average Pain, average change from baseline, Mean ± SD [1, 12]: −8.5 ± 0
- Least Pain Last 24 Hrs, average change from baseline, Mean ± SD [1, 12]: −9 ± 0
- Pain Right Now, average change from baseline, Mean ± SD [1, 12]: −8 ± 0
- Worst Pain Last 24 Hrs, average change from baseline, Mean ± SD [1, 12]: −10 ± 0
- Tmax ([2]; both): 4.05 h
- AUC ([2]; both, 1100 mcg): 6160 ng·h/mL
- Cmax ([2]; both, 1100 mcg): 301 ng/mL
- AUC ([2]; both, 5500 mcg): 3630 ng·h/mL
- Cmax ([2]; both, 5500 mcg): 215 ng/mL
- Tmax ([2]; both, 5500 mcg): 3.65 h
- AUC ([2]; both, 16500 mcg): 8280 ng·h/mL
- Cmax ([2]; both, 16500 mcg): 366 ng/mL
- Tmax ([2]; both, 16500 mcg): 4.15 h
- AUC ([2]; both, 33000 mcg): 13300 ng·h/mL
- Cmax ([2]; both, 33000 mcg): 496 ng/mL
- Tmax ([2]; both, 33000 mcg): 4.35 h
- AUC ([2]; both, 49500 mcg): 17000 ng·h/mL
- Cmax ([2]; both, 49500 mcg): 593 ng/mL
- Tmax ([2]; both, 49500 mcg): 4.4 h
- half-life ([2]; half-life, simple formulation used in phase 1 trial): ~19 h
- AUC ([2]; po, 5.5 mg): 3700 ng·h/mL
- Cmax ([2]; po, 5.5 mg): 214 ng/mL
- AUC ([2]; po, 11 mg): 6250 ng·h/mL
- Cmax ([2]; po, 11 mg): 301 ng/mL
- AUC ([2]; po, 16.5 mg): 8360 ng·h/mL
- Cmax ([2]; po, 16.5 mg): 366 ng/mL
- AUC ([2]; po, 33 mg): 13300 ng·h/mL
- Cmax ([2]; po, 33 mg): 497 ng/mL
- AUC ([2]; po, 49.5 mg): 16900 ng·h/mL
- Cmax ([2]; po, 49.5 mg): 595 ng/mL
- half-life ([2]; po, half-life calculated from population PK model, patients with metastatic cancer): ~18.5 h
- sensitization of GI epithelium to radiation (GI epithelium): did not sensitize GI epithelium to radiation
- PSA % Change (PSA; patient 2, 5.5 mg cohort, FU visit 2 M vs Day 1): −77.9%
- PSA Value FU (PSA; patient 2, 5.5 mg cohort, FU visit 2 M, Day 1 PSA 39.83): 8.79 ng/mL
- PSA % Change (PSA; patient 3, 5.5 mg cohort, FU visit 2.25 M vs Day 1): 6.2%
- PSA Value FU (PSA; patient 3, 5.5 mg cohort, FU visit 2.25 M, Day 1 PSA 225): 239 ng/mL
- PSA % Change (PSA; patient 4, 11 mg cohort, FU visit 3.25 M vs Day 1): −72.9%
- PSA Value FU (PSA; patient 4, 11 mg cohort, FU visit 3.25 M, Day 1 PSA 131.83): 35.77 ng/mL
- PSA % Change (PSA; patient 5, 11 mg cohort, FU visit 4 M vs Day 1): −52.6%
- PSA Value FU (PSA; patient 5, 11 mg cohort, FU visit 4 M, Day 1 PSA 40.61): 19.25 ng/mL
- PSA % Change (PSA; patient 6, 11 mg cohort, FU visit 4 M vs Day 1): −67.3%
- PSA Value FU (PSA; patient 6, 11 mg cohort, FU visit 4 M, Day 1 PSA 0.98): 0.32 ng/mL
- PSA % Change (PSA; patient 7, 16.5 mg cohort, FU visit 2.25 M vs Day 1): 1155.7%
- PSA Value FU (PSA; patient 7, 16.5 mg cohort, FU visit 2.25 M, Day 1 PSA 1.74): 21.85 ng/mL
- PSA % Change (PSA; patient 8, 16.5 mg cohort, FU visit 2.75 M vs Day 1): −59.4%
- PSA Value FU (PSA; patient 8, 16.5 mg cohort, FU visit 2.75 M, Day 1 PSA 3.3): 1.34 ng/mL
- PSA % Change (PSA; patient 9, 16.5 mg cohort, FU visit 3.25 M vs Day 1): −11%
- PSA Value FU (PSA; patient 9, 16.5 mg cohort, FU visit 3.25 M, Day 1 PSA 1): 0.89 ng/mL
- PSA % Change (PSA; patient 10, 33 mg cohort, FU visit 3 M vs Day 1): −67.1%
- PSA Value FU (PSA; patient 10, 33 mg cohort, FU visit 3 M, Day 1 PSA 196): 64.46 ng/mL
- decrease in PSA, range (PSA; the seven of nine prostate cancer patients with a decrease, first follow up 2-4 months after RT): 11-78%
- Tumor Response in Irradiated Field ([3]; patient 2 (prostate, 5.5 mg), Field 1, bone, BS 2 mo.): CR
- Tumor Response in Irradiated Field ([3]; patient 2 (prostate, 5.5 mg), Field 2, bone, BS 2 mo.): PR (PR decrease in extent of involvement (# and size of lesion ≥ 50% observed))
- Tumor Response in Irradiated Field ([3]; patient 3 (prostate, 5.5 mg), bone, BS 1 mo.): SD
- Tumor Response in Irradiated Field ([3]; patient 4 (prostate, 11 mg), bone, BS 1 mo.): CR
- Tumor Response in Irradiated Field ([3]; patient 5 (prostate, 11 mg), bone, BS 3 mo., ↓ intensity of uptake): SD ( ↓ Intensity of uptake)
- Tumor Response in Irradiated Field ([3]; patient 6 (prostate, 11 mg), bone, BS 5 mo., change from diffuse to patch involvement): PR (Change from diffuse to patch involvement (PR decrease in extent of involvement (# and size of lesion ≥ 50% observed))
- Tumor Response in Irradiated Field ([3]; patient 7 (prostate, 16.5 mg), bone, BS 1 mo., ↓ intensity of uptake): SD (↓ intensity of uptake)
- Tumor Response in Irradiated Field ([3]; patient 8 (prostate, 16.5 mg), bone, MRI 2 mo.): SD
- Tumor Response in Irradiated Field ([3]; patient 9 (prostate, 16.5 mg), bone, CT and MRI 3 mo.): SD
- Tumor Response in Irradiated Field ([3]; patient 10 (prostate, 33 mg), Field 1, bone, CT 4 mo.): PD (PD ≥ 20% ↑ sum of diameters)
- Tumor Response in Irradiated Field ([3]; patient 10 (prostate, 33 mg), Field 2, bone, CT 4 mo.): SD
- Tumor Response in Irradiated Field ([3]; patient 11 (multiple myeloma, 33 mg), bone, PET-CT 6 mo., almost complete metabolic resolution): PR (almost complete metabolic resolution) (PR ≥ 30% ↓ sum of diameters)
- Tumor Response in Irradiated Field ([3]; patient 12 (MPNST, 33 mg), lymph node, CT 1 mo.): SD
- Tumor Response in Irradiated Field ([3]; patient 13 (NSCLC, 33 mg), bone, CT, MRI and PET-CT 1 mo.): PD (PD ≥ 20% ↑ sum of diameters)
- Tumor Response in Irradiated Field ([3]; patient 15 (NSCLC, 49.5 mg), bone, BS 2 mo.): SD
- effects on the host [4]: without apparent ill effects on the host
- MTD ([5]; i.v. daily for 5 consecutive days for 2 or 4 weeks, 34 patients): 10.2 mg/m^2
- most common side effects ([5]; i.v.): fatigue, nausea and cramps in fingers and legs

Reference: patent US20210046106A1, “METHODS OF TREATING CANCER WITH ANDROGEN DEPRIVATION THERAPY IN COMBINATION WITH AN INHIBITOR OF THE SP1 TRANSCRIPTION FACTOR” (The Board of Trustees of the Leland Stanford Junior …, priority 2019, published 2021)
